Molecules are shown by their SMILES. Where a name gives a salt, the structure may show the parent alone. Read-outs that look alike come from different tables or passages of the source.

Test [1] has as its target T1, human OPRM1 (μ, MOR) (Homo sapiens, UniProt P35372).
T1 construct: host or cells: CHO-K1
It is filed as cell-based. As to conditions: for ΔRA of compound: relative activity from EC50 and Emax of β-arrestin vs cAMP, lower RA = more G-protein biased. How it is done: In certain embodiments, the ability of a compound to activate G-protein or β-arrestin is not an on/off switch for a given pathway, but rather a continuous function. To capture this, each compound is measured for activity in cell assays that are linked to β-arrestin recruitment and G-protein signaling. By comparing the activity between these two measures (accounting for both EC50 and maximal response reached, Emax) a relative activity (RA) value is determined.
In the case of MOR it is desirable to have high activation of the G-protein pathway while reducing activation of β-arrestin. In the case of the formula above, this means a lower RA.

Test [2] concerns the target T1, human OPRM1 (μ, MOR). Put plainly: cell-based. As to conditions: for Emax: OPRM1, read-out: cAMP Emax; for EC50: PathHunter human OPRM1 Arrestin CHO-K1 cell line, read-out: cAMP EC50. As to the method:
G-protein signaling was measured via second messenger cAMP modulation. Detection of cAMP modulation was accomplished in the PathHunter human OPRM1 (μ, MOR) Arrestin CHO-K1 cell line using the Dynamic2 cAMP Kit from Cisbio.

Test [3] has as its target T1, human OPRM1 (μ, MOR). Put plainly: cell-based. As to conditions: for Emax: OPRM1, read-out: β-Arrestin Emax; for EC50: PathHunter human OPRM1 Arrestin CHO-K1 cell line, read-out: β-Arrestin EC50. As to the method:
The Discoverx PathHunter® β-Arrestin assay is used to measure β-arrestin-2 activity. The technology is based on Enzyme Fragment Complementation (EFC) with β-galactosidase (β-Gal) as the reporter. […] EA is fused to Q-arrestin-2, and ED is fused to the C-terminus of the GPCR of interest. When a ligand binds and the GPCR is activated, Q-arrestin-2 is recruited to the receptor resulting in an ED/EA complementation, restoring f-Gal activity, which is measured using chemiluminescence. For this assay, the PathHunter human OPRM1 (μ, MOR) Arrestin CHO-K1 cell line was used.

T1 sequence (P35372 whole entry): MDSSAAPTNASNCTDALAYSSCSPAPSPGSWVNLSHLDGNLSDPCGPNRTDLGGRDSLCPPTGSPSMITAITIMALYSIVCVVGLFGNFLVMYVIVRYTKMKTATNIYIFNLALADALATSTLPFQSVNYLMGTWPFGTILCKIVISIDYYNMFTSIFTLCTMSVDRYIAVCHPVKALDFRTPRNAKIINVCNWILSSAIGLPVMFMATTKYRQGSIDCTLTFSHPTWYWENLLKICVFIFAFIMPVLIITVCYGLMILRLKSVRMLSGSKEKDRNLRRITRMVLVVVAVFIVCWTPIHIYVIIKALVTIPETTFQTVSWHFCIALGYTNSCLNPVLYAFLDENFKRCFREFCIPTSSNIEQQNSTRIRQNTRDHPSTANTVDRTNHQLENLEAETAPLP

One may read the Emax as the greatest response seen or fitted, relative to the assay's reference. One may read the EC50 as the midpoint of the concentration-response curve. With `CN(C)C(CNC(=O)N1CCCc2cc(F)ccc21)c1ccsc1` (stereo not drawn) [Compound 7a, N-(2-(dimethylamino)-2-(thiophen-3-yl)ethyl)-6-fluoro-3,4-dihydroquinoline-1(2H)-carboxamide hydrochloride], in test [1], the “Bias Factor (ΔRA of compound relative to ΔRA of DAMGO) × 10” value is less than −14.83 and the ΔRA of compound is on record as less than −2.96. Besides, in test [2], the Emax is 92.1% and the EC50 was 407 nM. Also, in test [3], the Emax was less than 1% and the EC50 is more than 100000 nM.

`CNC(CNC(=O)N1Cc2ccccc2C1)c1ccccc1` (stereo not drawn) [Compound 38, N-(2-(methylamino)-2-phenylethyl)isoindoline-2-carboxamide]: in test [1], the “Bias Factor (ΔRA of compound relative to ΔRA of DAMGO) × 10” value is −12.56 and the ΔRA of compound was −2.74. In addition, in test [2], the Emax came out at 95.9% and the EC50 is 45 nM. For the same compound, in test [3], the Emax was 6.6% and the EC50 turned out to be 1670 nM.

Take `CNC(CNC(=O)N1Cc2ccccc2C1)c1ccsc1` (stereo not drawn) [Compound 79]: in test [1], the “Bias Factor (ΔRA of compound relative to ΔRA of DAMGO) × 10” value is listed as less than −14.83 and the ΔRA of compound is given as less than −2.96. Besides, in test [2], the “cAMP Emax” value came to 64.2% and the EC50 was found to be 87 nM. Also, in test [3], the “β-Arrestin Emax” value amounted to 1.7% and the EC50 was more than 100000 nM.

With `CNC(CNC(=O)N1Cc2cccc(F)c2C1)c1ccsc1` (stereo not drawn) [Compound 80], in test [1], the “Bias Factor (ΔRA of compound relative to ΔRA of DAMGO) × 10” value is −6.64 and the ΔRA of compound was −2.14. Also, in test [2], the Emax amounted to 103% and the EC50 is 41 nM. Moreover, in test [3], the “β-Arrestin Emax” value came out at 25.2% and the EC50 stood at 1400 nM.

Consider `CN(C)C(CNC(=O)N[C@H]1CCc2ccccc2C1)c1ccsc1` (stereo partly drawn) [Compound 51], for which, in test [1], the “Bias Factor (ΔRA of compound relative to ΔRA of DAMGO) × 10” value was less than −14.83 and the ΔRA of compound is recorded as less than −2.96. Besides, in test [2], the “cAMP Emax” value was found to be 64.9% and the EC50 was 29 nM. In addition, in test [3], the “β-Arrestin Emax” value was less than 1% and the EC50 was more than 100000 nM.

On to `CNC(CNC(=O)N1Cc2ccc(F)cc2C1)c1ccc(OC)cc1` (stereo not drawn) [Compound 82], for which, in test [1], the “Bias Factor (ΔRA of compound relative to ΔRA of DAMGO) × 10” value is less than −14.83 and the ΔRA of compound is reported as less than −2.96. Moreover, in test [2], the Emax worked out at 83.2% and the EC50 worked out at 457 nM. In test [3], the “β-Arrestin Emax” value worked out at 2.7% and the EC50 was more than 100000 nM.

For `CN(C)C(CNC(=O)N1CCCc2ccccc21)c1ccsc1` (stereo not drawn) [Compound 9a, N-(2-(dimethylamino)-2-(thiophen-3-yl)ethyl)-3,4-dihydroquinoline-1(2H)-carboxamide hydrochloride], in test [1], the “Bias Factor (ΔRA of compound relative to ΔRA of DAMGO) × 10” value was −6.20 and the ΔRA of compound was −2.10. Also, in test [2], the Emax came out at 75.7% and the concentration giving a half-maximal response (EC50) came out at 512 nM. In test [3], the Emax was found to be 5.11% and the concentration for a half-maximal effect (EC50) was 4360 nM.

As to `CN(C)C(CNC(=O)N(C)[C@H]1CCCc2ccccc21)c1ccsc1` (stereo partly drawn) [Compound 39], in test [1], the “Bias Factor (ΔRA of compound relative to ΔRA of DAMGO) × 10” value was −1.90 and the ΔRA of compound is −1.67. Besides, in test [2], the maximal effect (Emax) amounted to 93.4% and the concentration giving a half-maximal response (EC50) is 118 nM. Also, in test [3], the Emax turned out to be 10.9% and the EC50 stood at 644 nM.

On to `CNC(CNC(=O)N1Cc2ccccc2C1)c1ccsc1` (stereo not drawn) [Compound 78], for which, in test [1], the “Bias Factor (ΔRA of compound relative to ΔRA of DAMGO) × 10” value is less than −14.83 and the ΔRA of compound is given as less than −2.96. Moreover, in test [2], the “cAMP Emax” value is reported as 104.0% and the EC50 amounted to 362 nM. Further, in test [3], the “β-Arrestin Emax” value was determined as 12.8% and the EC50 is more than 100000 nM.

As for `CN(C)C1(CNC(=O)N2Cc3ccc(F)cc3C2)CCCCC1` [Compound 46], in test [1], the “Bias Factor (ΔRA of compound relative to ΔRA of DAMGO) × 10” value is −7.08 and the ΔRA of compound is reported as −2.19. Also, in test [2], the Emax was 109% and the EC50 worked out at 522 nM. In test [3], the Emax was found to be 13.6% and the half-maximal effective concentration (EC50) turned out to be 10100 nM.

The record behind these values is patent US20220315567A1 (priority 2016, published 2022).
